row,Compound,melting point [°C]
1,Cn1nc(-c2c(Cl)cncc2Cl)nc1-c1ccc(Cl)cc1Cl [Compound 7],79 to 81
2,"Cn1nc(-c2c(Cl)cncc2Cl)nc1C1(C)CC1(Cl)Cl (centres unmarked) [Compound 133, 3-(3,5 dichloro-4-pyridyl)-5-(2,2-dichloro-1-methylcyclopropyl)-1-methyl[1,2,4]triazole]",79 to 83
3,"Cc1nc(-c2c(Cl)cncc2Cl)nn1-c1ccc(Cl)cc1 [Example 19, 1-(4-Chlorophenyl)-5-methyl-3-(3,5-dichloro-4-pyridyl)-1H-1,2,4-triazole]",142 to 145

# Continued, values first:
row,melting point [°C],Compound
1,130 to 132,Cn1nc(-c2c(Cl)cncc2Cl)nc1-c1ccncc1 [Compound 113]
2,154 to 156,Cn1nc(-c2nc(F)c(F)c(F)c2F)nc1-c1ccc(Cl)cc1 [Compound 155]
3,98 to 102,Cn1nc(-c2nc(Cl)ccc2Cl)nc1-c1ccc(Cl)cc1 [Compound 156]
4,105 to 107,Cn1nc(-c2ncc(Cl)cc2Cl)nc1-c1ccc(Cl)cc1 [Compound 158]
5,113 to 117,Cc1ccc(-c2nc(-c3ncccc3Cl)nn2C)cc1 [Compound 159]
